Several values for one entry are separate records, joined by “and”; a condition that tells them apart may be missing. Equal values may be shown once.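 Five concentrations, 48 hours, 96-well plates. Abbreviation: GI50, concentration required for 50% inhibition of growth. Definition used: TGI = concentration required for complete inhibition of growth.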 *1 amine or outer side, *2 acyl side, *3 side chain or, on linkers, in order; H or OH if unused. Where a SMILES comes first, the peptide text is derived from it. Bridges are numbered along the chain shown (N, C = ends). Roman numbers before positions name the chains, in order. [ ]: non-standard residue; d: D form. Actinocin(9to1) = Cc1c2oc3c(C)ccc(C(=O)[*:1])c3nc-2c(C(=O)[*:2])c(N)c1=O; NMeT = CN[CH](C(=O)O)[CH](C)O; Sar = CNCC(=O)O Some results are limits rather than exact numbers.

Common to all, as to experiment: NCI tumour cell line growth inhibition, 48 h
For assay [1], the system named is HCC-2998 colon.
For assay [2], the system named is HCT-116 colon.
Assay [3] relates to HOP-62 NSCLC.
For assay [4], the system named is HOP-92 NSCLC.
In assay [5] the test system is K-562 leukemia.
In assay [6] the test system is KM12 colon.
Assay [7] has as its system M14 melanoma.
Assay [8] deals with NCI-H226 lung.
In assay [9] the test system is SNB-19 CNS.
Assay [10] relates to T-47D breast.

In the case of `CCN(Cc1ccccc1)c1ccc(CO)c(Cl)c1`, the GI50 in assay [1] was 8.33 µM; in assay [2], 0.11 µM; in assay [3], 0.963 µM; in assay [4] it was 1.67 µM; in [5], 2.69 µM; in assay [6], 20.5 µM. Moreover, the GI50 in assay [7] was 20.1 µM; in assay [8] it was 0.0913 µM; in assay [9], 51.4 µM; in assay [10], 0.278 µM. Besides, the TGI in assay [1] was 34.5 µM; in [2], 10.2 µM; in assay [3] it was 79.5 µM; in assay [4], 15.3 µM; in [5] it was more than 100 µM; in [6], 63.3 µM. Moreover, the TGI in assay [7] was more than 65.1 µM; in assay [8] it was 0.233 µM; in [9] it was more than 100 µM; in assay [10] it was 2.25 µM.
Take `Cc1ccc2c(-c3ccnc(Nc4ccccc4)n3)c(-c3ccc(F)cc3)nn2n1`: the GI50 was 7.03 µM in assay [1]; 4.48 µM in [2]; 19.4 µM in assay [3]; 3.33 µM in [4]; 13.5 µM in [5]; 7.05 µM in assay [6]. Moreover, the GI50 in assay [7] is 9.56 µM; in assay [8], 8.23 µM; in assay [9], 14.4 µM; in assay [10], 7.45 µM. Also, the TGI in assay [1] is 22.6 µM; in assay [2], 14.6 µM; in [3], more than 25 µM; in assay [4] it was more than 25 µM; in assay [5], more than 25 µM; in assay [6] it was more than 25 µM. For the same compound, the TGI is more than 25 µM in assay [7], 24.2 µM in assay [8], more than 25 µM in assay [9] and more than 25 µM in [10].
In the case of `Cc1c2oc3c(C)ccc(C(=O)NC4C(=O)NC(C(C)C)C(=O)N5CCCC5C(=O)N(C)CC(=O)N(C)C(C(C)O)C(=O)OC4C)c3nc-2c(C(=O)NC2C(=O)NC(C(C)C)C(=O)N3CCCC3C(=O)N(C)CC(=O)N(C)C(C(C)O)C(=O)OC2C)c(N)c1=O` (stereo not given) (I: TVP[Sar][NMeT] / II: TVP[Sar][NMeT]; ester I:1-I:C, II:1-II:C; linker I:N-II:N via Actinocin(9to1); configuration not given here), the GI50 in assay [1] is 3.64 µM and > 1 µM; in assay [7], 7.14 µM and > 1 µM; in assay [8], 1.47 µM and 0.618 µM; in assay [9] it was 2.3 µM and 0.572 µM; in assay [10] it was 2.67 µM and > 1 µM. Further, the TGI in assay [1] was more than 29.3 µM; in assay [2], more than 100 µM; in assay [3], more than 1 µM; in assay [4], more than 71.4 µM; in assay [5], more than 36.5 µM; in assay [6], more than 100 µM. In addition, the TGI was more than 56.9 µM in [7]; 26.8 µM and > 1 µM in assay [8]; more than 100 µM in assay [9]; more than 100 µM in [10].
Consider `O=S(=O)(NCCCNc1nccc(-c2c(-c3ccc(F)c(O)c3)nc3sccn23)n1)c1ccc(F)cc1`, for which the GI50 was 2.86 µM in assay [1]; 2.78 µM in assay [3]; 1.46 µM in [4]; 1.98 µM in [5]; 2.67 µM in assay [6]; 0.0481 µM in assay [7]. Also, the values for the GI50 in assay [8], in assay [9] and in assay [10] were 2.38 µM, 3.33 µM and 2.24 µM, respectively. The TGI in assay [1] is 7.17 µM; in assay [3], 8.7 µM; in [4], 6.24 µM; in assay [5], more than 100 µM; in [6], 8.36 µM; in assay [7], 3.14 µM. Besides, the TGI was 6.98 µM in [8], more than 100 µM in [9] and 6.21 µM in assay [10].
On to `C[C@@H](O)[C@H](NC(=O)N[C@@H](CC(N)=O)c1nc([C@@H](N)CO)no1)C(=O)O`, for which the GI50 in [1], in [2], in assay [3], in assay [4], in assay [6] and in assay [7] was more than 100 µM throughout. Besides, the GI50 in assay [8], in assay [9] and in [10] was more than 100 µM each time. Also, the TGI in [1], in assay [2], in assay [3], in assay [4], in assay [6] and in [7] was more than 100 µM in each case. Besides, the TGI in [8], in assay [9] and in assay [10] was more than 100 µM each time.
Regarding `N#Cc1ccc2c(c1)C(=O)c1c-2n(CCCCl)c(=O)c2cc([N+](=O)[O-])ccc12`, the GI50 in assay [1] was 12 µM; in assay [2], 1.82 µM; in assay [3], 2.55 µM; in assay [4], 5.06 µM; in assay [6] it was more than 100 µM; in assay [7], 4.64 µM. Also, the GI50 in assay [8] is 9.1 µM; in assay [9] it was 3.39 µM; in [10], 2.65 µM. For the same compound, the TGI was more than 100 µM in assay [1]; more than 100 µM in assay [2]; 14 µM in assay [3]; 23.1 µM in assay [4]; more than 100 µM in assay [6]; more than 100 µM in assay [7]. For the same compound, the TGI is 89.9 µM in assay [8], more than 100 µM in [9] and more than 100 µM in [10].
For the compound `COc1ccc(-c2cc(-c3cccn3C)c(C#N)c(=O)[nH]2)cc1OC`, the GI50 was 88.7 µM in [1]; more than 100 µM in [2]; more than 100 µM in assay [3]; 0.0508 µM in assay [4]; more than 100 µM in [5]; more than 100 µM in assay [6]. In addition, the figures for the GI50 in [8], in assay [9] and in assay [10] were more than 100 µM, more than 100 µM and 34.7 µM, respectively. For the same compound, the TGI is more than 100 µM in assay [1]; more than 100 µM in assay [2]; more than 100 µM in [3]; 9.8 µM in assay [4]; more than 100 µM in assay [5]; more than 100 µM in assay [6]. Moreover, the TGI in [8], in assay [9] and in [10] was more than 100 µM throughout.
Regarding `NC1CCC(Nc2nc(NCc3ccc(-c4ccccc4O)nc3)c3ncn(C4CCCC4)c3n2)CC1` (stereo not given), the GI50 in assay [1] was 0.0229 µM; in assay [2], 0.0317 µM; in [3], 0.0157 µM; in assay [4], 0.02 µM; in assay [6], 0.018 µM; in [7], 0.0112 µM. In addition, the GI50 in assay [8] is 0.0486 µM; in assay [9] it was less than 0.0147 µM; in [10], 0.0252 µM. The TGI amounted to 0.515 µM in [1]; 1.15 µM in assay [2]; 0.0666 µM in [3]; 0.077 µM in [4]; 0.429 µM in [6]; 0.0552 µM in assay [7]. The TGI in [8] was determined as 0.404 µM; in assay [9], 1.32 µM; in assay [10], 0.0791 µM.

Source of the values: PubChem BioAssay (NCI).
